Measured values taken from patent publication US4962097A, “Method of treating bacterial infection with phosphorus containing DHP enzyme inhibitors” (Merck & Co., Inc., priority 1989, dated 1990).

target: T1, renal dehydropeptidase I (Sus scrofa, UniProt P22412); assay: in vitro screen: inhibition of hydrolysis of glycyldehydrophenylalanine (GDP) by solubilized renal dipeptidase from hog kidneys (renal dehydropeptidase I inhibition); type: biochemical; settings: Table I, structure II (olefins); GDP 0.05 mM, 50 mM MOPS pH 7.1, 37° C., 275 nm
T1 construct: isolated from hog kidneys; from tissue; host or cells: hog kidney
T1 sequence (P22412 17-409): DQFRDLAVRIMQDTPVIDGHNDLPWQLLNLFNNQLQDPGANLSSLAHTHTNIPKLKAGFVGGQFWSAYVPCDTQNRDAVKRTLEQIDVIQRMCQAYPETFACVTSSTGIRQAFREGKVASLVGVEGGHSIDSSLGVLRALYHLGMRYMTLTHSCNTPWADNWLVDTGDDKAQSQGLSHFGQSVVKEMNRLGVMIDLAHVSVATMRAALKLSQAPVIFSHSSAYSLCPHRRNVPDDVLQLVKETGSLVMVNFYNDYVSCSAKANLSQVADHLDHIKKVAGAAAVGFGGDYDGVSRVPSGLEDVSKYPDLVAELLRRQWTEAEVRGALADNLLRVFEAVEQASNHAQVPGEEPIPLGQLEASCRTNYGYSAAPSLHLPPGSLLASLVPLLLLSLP
Method: This measured the ability of compounds to inhibit hydrolysis of glycyldehydrophenylalanine (GDP) by a solubilized preparation of […] isolated from hog kidneys. The procedure is as follows: to a 1 ml system containing 50 mM "MOPS" (3-(N-morpholino)-propanesulfonic acid) buffer, pH 7.1 is added 5 mg of lyophilized enzyme, and the test compound at a final concentration of 0.1 mM. After a five minute incubation at 37° C., GDP is added to a final concentration of 0.05 mM. Incubation is continued for 10 minutes, at 37° C. and hydroylsis of GDP is measured by the change in optical density with time at 275 nm. Inhibition of the enzyme is gauged by comparison to a standard run containing no inhibitor and is expressed as the inhibitor binding constant K. This is the concentration of the inhibitor which achieves 50% inhibition of the enzyme.

Row | Compound | Ki [nM]
1 | N[C@@H](CC1CCCCC1)P(=O)(O)C/C(=C\CC1CCCC1)C(=O)O [(1(R)-Amino-2-cyclohexylethyl)2-carboxy-4-cyclopentyl-2(Z)-butenyl phosphinic acid] | 0.86
2 | CCCC/C=C(\CP(=O)(O)C(N)CC(C)C)C(=O)O (centres unmarked) [(CH3)2 CHCH2; CH3 (CH2)3; RS; Z] | 1.6
3 | CC(C)/C=C(\CP(=O)(O)[C@@H](N)CC1CCCCC1)C(=O)O [(cyclo-C6 H11)CH2; (CH3)2 CH; R; Z] | 0.54
4 | CCCCC/C=C(\CP(=O)(O)C(N)CC1CCCCC1)C(=O)O (centres unmarked) [(cyclo-C6 H11)CH2; CH3 (CH2)4; RS; Z, (1-Amino-2-cyclohexylethyl) 2-carboxy-2(Z)-octenyl phosphinic acid] | 3.1
5 | N[C@@H](CC1CCCCC1)P(=O)(O)C/C(=C\C1CCCCC1)C(=O)O [(cyclo-C6 H11)CH2; cyclo-C6 H11; R; Z, (1(R)-Amino-2-cyclohexylethyl)2-carboxyl-3(Z)-cyclohexyl-2-propenyl phosphinic acid] | 0.52
6 | NC(CC1CCCCC1)P(=O)(O)C/C(=C\C1CCCCC1)C(=O)O (centres unmarked) [(cyclo-C6 H11)CH2; cyclo-C6 H11; RS; Z, (1-Amino-2-cyclohexylethyl) 2-carboxy-3(Z)-cyclohexyl-2-propenyl phosphinic acid] | 0.9
7 | CCCCC/C=C(\CP(=O)(O)C(N)CCCCC)C(=O)O (centres unmarked) [CH3 (CH2)4; CH3 (CH2)4; RS; Z, (1-Aminohexyl) 2-carboxy-2(Z)-octenyl phosphinic acid] | 1.4
8 | CCCCCC(N)P(=O)(O)C/C(=C\C1CCCCC1)C(=O)O (centres unmarked) [CH3 (CH2)4; cyclo-C6 H11; RS; Z, (1-Aminohexyl) 2-carboxy-3-cyclohexyl-2(Z)-propenyl phosphinic acid] | 0.5
9 | CCCCC/C=C(\CP(=O)(O)C(N)Cc1ccccc1)C(=O)O (centres unmarked) [PhCH2; CH3 (CH2)4; RS; Z] | 68
10 | (1(R)-Amino-2-cyclohexylethyl)2-carboxyl-4-methyl-(E & Z)-2-butenyl phosphinic acids (15C & 15D) [(cyclo-C6 H11)CH2; (CH3)2 CH; RS; Z] [listing 1 of 2 here] | 2.1
11 | (1(R)-Amino-2-cyclohexylethyl)2-carboxyl-4-methyl-(E & Z)-2-butenyl phosphinic acids (15C & 15D) [(cyclo-C6 H11)CH2; (CH3)2 CH; RS; Z] [listing 2 of 2 here] | 21

same assay, conditions: Table II, structure I (saturated); GDP 0.05 mM, 50 mM MOPS pH 7.1, 37° C., 275 nm

Row | Compound | Ki [nM]
12 | CCCCCC(N)P(=O)(O)CC(CCC1CCCC1)C(=O)O (racemic) [CH3 (CH2)4; (cyclo-C5 H9)CH2 CH2; RS; RS, (1-Amino-1-hexyl) 2-carboxy-4-cyclopenyl-1-butyl phosphinic acid] | 7
13 | CCCCCCC(CP(=O)(O)C(N)CCCCC)C(=O)O (racemic) [CH3 (CH2)4; CH3 (CH2)5; RS; RS, (1-Amino-1hexyl) 2-carboxy-l-octyl phosphinic acid] | 8
14 | CCCCC(CP(=O)(O)C(N)CC)C(=O)O (racemic) [CH3 CH2; CH3 (CH2)3; RS; RS, 1-Aminopropyl-[2-carboxy-l-hexyl]phosphinic acid] | 2.3
15 | CCC(CP(=O)(O)C(N)CC)C(=O)O (racemic) [CH3 CH2; CH3 CH2; RS; RS, 1-Aminopropyl-[2-carboxy-l-butyl]phosphinic acid] | 1.3
16 | CCC(N)P(=O)(O)CC(CCc1ccccc1)C(=O)O (racemic) [CH3 CH2; Ph(CH2)2; RS; RS, 1-Aminopropyl-[2-carboxy-4-phenyl-l-butyl]phosphinic acid] | 6.8
17 | N[C@@H](CC1CCCCC1)P(=O)(O)CC(CCC1CCCC1)C(=O)O (some centres unmarked) [(1-Amino-2-cyclohexylethyl) 2-carboxy-4-cyclopentyl-1-butyl phosphinic acid] | 2.7
18 | N[C@@H](CC1CCCCC1)P(=O)(O)CC(CC1CCCCC1)C(=O)O (some centres unmarked) [(1-Amino-2-cyclohexylethyl)-2-carboxy-3-cyclohexyl-1-propyl phosphinic acid] | 0.5
19 | N[C@@H](CC1CCCCC1)P(=O)(O)CC(CCCc1ccncc1)C(=O)O (some centres unmarked) [(1-Amino-2-cyclohexylethyl)-2-carboxy-5-(4-pyridyl)-pentyl phosphinic acid] | 4
20 | CCCCC(CP(=O)(O)C(N)CC(C)C)C(=O)O (centres unmarked) [(CH3)2 CHCH2; CH3 (CH2)3; RS; RS, 1-Amino-3-methylbutyl-[2-carboxy-1-hexyl]phosphinic acid] | 2.4
21 | CCCCCCC(CP(=O)(O)C(N)CC1CCCCC1)C(=O)O (centres unmarked) [(cyclo-C6 H11)CH2; CH3 (CH2)5; RS; RS, (1-Amino-2-cyclohexylethyl) 2-carboxy-1-octyl phosphinic acid] | 1.6
22 | CCCCCC(N)P(=O)(O)CC(CC1CCCCC1)C(=O)O (centres unmarked) [CH3 (CH2)4; (cyclo-C6 H11)CH2; RS; RS, (1-Amino-1-hexyl) 2-carboxy-3-cyclohexyl-1-propyl phosphinic acid] | 9.7
23 | CCCCC(CP(=O)(O)C(N)Cc1ccccc1)C(=O)O (centres unmarked) [PhCH2; CH3 (CH2)3; RS; RS, 1-Amino-2-phenylethyl-[2-carboxy-1-hexyl]phosphinic acid] | 84
